Read-outs that look alike come from different tables or passages of the source.
Target: T1, human cGAS (residues 161-522) (Homo sapiens, UniProt Q8N884)
T1 construct: Recombinantly expressed purified human cGAS (residues 161-522) was used at 25 nM; made in house
Assay: cGAS Activity Assay—Malachite Green
Format: biochemical
Outline: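 Coupled malachite-green phosphate detection was used: enzyme and compound in 20 mM TRIS pH 7.5, 5 mM MgCl2, 0.01% BSA with 80 μM ATP, 80 μM GTP and 100 nM ISD DNA, 4 h at RT in the dark.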

[1] = cGAS inhibition, 25 nM cGAS, 80 μM ATP, 80 μM GTP, 100 nM ISD, 4 hour at RT, Malachite Green phosphate detection, read-out: IC50 cGAS

T1 sequence (Q8N884 161-522): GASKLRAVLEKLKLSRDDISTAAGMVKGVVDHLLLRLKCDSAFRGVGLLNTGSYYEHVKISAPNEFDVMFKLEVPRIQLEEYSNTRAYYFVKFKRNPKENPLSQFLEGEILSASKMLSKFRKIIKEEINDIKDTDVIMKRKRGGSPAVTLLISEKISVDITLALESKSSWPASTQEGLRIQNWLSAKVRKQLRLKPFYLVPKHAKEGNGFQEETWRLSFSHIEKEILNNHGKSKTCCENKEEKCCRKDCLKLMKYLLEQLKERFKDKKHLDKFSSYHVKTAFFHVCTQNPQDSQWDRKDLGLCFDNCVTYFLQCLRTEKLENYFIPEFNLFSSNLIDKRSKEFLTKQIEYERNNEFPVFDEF

Structure (SMILES) | IC50 [1] [nM] | IC50 [nM]
O=c1cc(C(F)(F)F)[nH]c2nc(NCc3ccc(Cl)cc3Cl)nn12 [Example 60, 2-[(2,4-dichlorophenyl)methyl-amino]-5-(trifluoromethyl)-4H-[1,2,4]triazolo[1,5-a]-pyrimidin-7-one] | 1250 | –
CCCc1cc(=O)n2nc(NCc3cc(-n4cnc(C)c4)ccc3Cl)nc2[nH]1 [Example 88, 2-[[2-Chloro-5-(4-methylimidazol-1-yl)phenyl]methylamino]-5-propyl-4H-[1,24]triazolo[1,5-a]pyrimidin-7-one] | 484 | –
CCCc1cc(=O)n2nc(NCc3ccc(OCC(F)(F)F)cc3)nc2[nH]1 [Example 8, 5-propyl-2-[[4-(2,2,2-trifluoro-ethoxy)phenyl]methyllamino]-4H-[1,2,4]triazolo[1,5-a]-pyrimidin-7-one] | – | 7780

Further lines, results first:

IC50 [1] [nM] | IC50 [nM] | Structure (SMILES)
1160 | – | CCCc1cc(=O)n2nc(NCc3cc(N4CCOCC4)ncc3Cl)nc2[nH]1 [Example 96, 2-[(5-Chloro-2-morpholino-4-pyridyl)methylamino]-5-propyl-4H-[1,2,4]triazolo[1,5-a]pyrimidin-7-one]
– | 1340 | CCCc1cc(=O)n2nc(NCc3ccc(OCC)cc3Cl)nc2[nH]1 [Example 11]
